Reference: patent publication US5532229A, “Topical administration of vitamin D to mammals” (priority 1994, dated 1996)

Columns and labels:
[1] = Experiment 2: serum 25(OH)D3 after 3 wk vitamin D3 supplement; format: in vivo, Male Wistar rats; conditions: 8 μg/day, relative to marginal-diet group
Description: After 30 days, the rats were divided into three groups of 6: one group continued with no supplement, one group was given daily vitamin D3 supplement, 8 μg/day either by gastric tube, the third received the supplement by application to the skin in 50 μL ethanol. Vitamin D3 was given for 3 wk. The day before the rats were killed, the vitamin D3 dose was supplemented with [^14 C]-labelled vitamin D3, 915,000 cpm per rat. Blood was obtained from the tail of each rat at 3 h, 9 h, and by heart puncture when the rats were anesthetized for killing, 24 h after giving the tracer. The blood was extracted and chromatographed to distinguish [^14 C]-vitamin D3 from the [^14 C]-25(OH)D3generated from it. Radioactivity was also measured in the liver, kidney, and adipose tissue. Serum nonradioactive 25(OH)D3 was also measured.
Biochemical measurements. 1,25(OH)2 D3 in serum was measured by calf-thymus receptor-binding assay after initial purification of 1,25(OH)2 D3 with C18-OH cartridges (5). For the serum volumes that were minimal, serum was measured out in 50 μL increments, and the final result was adjusted for the volume of sample analyzed. […] The material eluting as 1,25(OH)2 D3 was evaporated and redissolved in acetonitrile: water for further purification with C18-OH cartridges and quantitation by thymus receptor assay, as described for serum. […]

[2] = system: 1α-hydroxylase; test: Experiment 3: 1-hydroxylase in renal mitochondria; format: in vivo, rat; conditions: for Renal mitochondria 1a-hydroxylase: 6 weeks
Description: Male, Wistar rats were obtained at 120-130 g, and placed on a 0.01% calcium, 0.7% phosphate diet that was vitamin D deficient (Teklad Test Diets, Madison, WI) this was for one week to help deplete vitamin D stores. For the next three weeks the rats were fed the vitamin D-deficient diet, but with normal, 0.5%, calcium. Starting with these 3 weeks, the rats were divided into four vitamin D3 -treatment groups, initially, nine rats per group: group a) supplemented once weekly with 0.6 μg vitamin D3 (average dose, 0.08 μg/day); group b) supplemented once every second day with vitamin D3 to provide 2 nmol/day, i.e., each dose was 4 nmol of vitamin D3; group c) supplemented once every second day with vitamin D3 to provide 8 μg/day. The preceding groups all received the vitamin D3 through an infant-feeding tube inserted through the mouth into the stomach. One group, d), received its vitamin D3 in the ethanol applied onto a shaved 2 cm×2 cm patch of skin on the back, this was done every second day to provide vitamin D3 at 8 μg/day. The volume of each dose of vitamin D3 given was adjusted so that the stated doses are per 250 g body weight. Over a second 3-week period while maintaining the described vitamin D3 dosing regimens, diet calcium content was changed weekly and blood sampling was started (that is, changes in calcium and sampling was from weeks 4 to 6, inclusive, of receiving the appropriate vitamin D3 supplement). Diet calcium was first dropped to 0.01% then raised to 1.5% and finally dropped again to 0.01%. For each week of dietary calcium manipulation, blood was obtained at day zero (the day of but just prior to the change in calcium), and days 1, 3, and 7 after the change. During the first week, 0.5 mL of blood was taken on the first two of these days and anticoagulated with heparin, the cells were isolated and resuspended in normal rat plasma and reinjected into the femoral vein. […] For the subsequent samplings, only 0.2-0.3 mL of blood was taken by bleeding from the tail into precalibrated microcentrifuge tubes. In this way, the bleeds prior to sacrifice removed a net total of less than 2 mL of blood, that is, less than or equal to 10% of the blood volume. Samples of daytime urine was collected into microfuge tubes that were fastened to the cones of metabolic collection funnels designed to hang under the wire cages. The cages and cones were rinsed with 0.1 mol/L hydrochloric acid prior to each collection. To eliminate contamination of the urine with diet, stool or water, the rats were placed into these separate cages only during the urine-collection period, until about 1 mL urine was present in the microfuge tube, this was typically within 5 min to one hour.
Biochemical measurements. 1,25(OH)2 D3 in serum was measured by calf-thymus receptor-binding assay after initial purification of 1,25(OH)2 D3 with C18-OH cartridges (5). For the serum volumes that were minimal, serum was measured out in 50 μL increments, and the final result was adjusted for the volume of sample analyzed. To measure 1α-hydroxylase in renal mitochondria, the incubation was as described previously, except the substrate was 20 μmol/L nonradioactive 25(OH)D3. The assay was stopped by addition of 2.5 mL methanol. To monitor recovery of 1,25 (OH)2 D3, 2000 cpm of [^3 H]--1,25(OH)2 D3 were added in 50 μL ethanol prior to further extraction with two additions of 1.25 mL methylene chloride. The methylene chloride layer was taken and evaporated to dryness, redissolved in hexane, isopropanol, methanol (90:9: 1) for purification by HPLC, Zorbax-Sil column. The material eluting as 1,25(OH)2 D3 was evaporated and redissolved in acetonitrile: water for further purification with C18-OH cartridges and quantitation by thymus receptor assay, as described for serum. Renal 24-hydroxylase was measured by incubating mitochondria with [^3 H]-25(OH)D3 as substrate (Vieth and Fraser, J Biol Chem. 254:12455-12460;1979). […]

[3] = 50 μg in 10 μL 95% ethanol, shaved skin of rats; cited from earlier work
[4] = generated by ultraviolet exposure, bound to DBP, experimental subjects; cited from earlier work

C=C1CC[C@H](O)C/C1=C/C=C1\CCC[C@]2(C)[C@@H]([C@H](C)CCCC(C)C)CC[C@@H]12 [vitamin D3]
increase in 25(OH)D3 with dermal relative to gastric supplementation [1]: 59%
difference between the two routes in activities of renal enzymes (1-hydroxylase) ([2]; 20 nmol/250 g/day): no significant difference between the two routes
Renal mitochondria 1a-hydroxylase ([2]; 0.08 μg/day diet): 1052 fmol/mg/mi
Renal mitochondria 1a-hydroxylase ([2]; 0.8 μg/day G1 (gastric)): 993 fmol/mg/mi
Renal mitochondria 1a-hydroxylase ([2]; 8 μg/day G1 (gastric)): 539 fmol/mg/mi
Renal mitochondria 1a-hydroxylase ([2]; 8 μg/day dermal): 630 fmol/mg/mi
1-hydroxylase in kidney ([2]; 8 μg/day, gastric and dermal, vs groups with less vitamin D3): suppressed 1-hydroxylase in kidney
response (intestinal calcium transport and serum calcium) [3]: no response was detected
persistence in circulation [4]: circulate unchanged for a prolonged time
